The values below come from patent US11040028B2, “Penicinotam derivative, preparation method and use thereof” (OCEAN UNIVERSITY OF CHINA, priority 2017, dated 2021).

Holding throughout (type): cell-based
For assay [1], the system named is human lung fibroblasts HFL1. Put plainly: Anti-fibrosis activity test: inhibition of proliferation of human lung fibroblasts HFL1 (CCK-8). As to conditions: Homo sapiens, HFL1, 48 h, HFL1 cells, 48 h, CCK-8. The essentials: (§1)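 Using CCK-8 colorimetry (450 nm), the study assessed growth inhibition after 48 h compound exposure; plating density was 2×10^4 cells/mL with 24 h attachment beforehand. IC50 was calculated from (1−Ai/Ao)×100%.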

The subject of assay [2] is human fibrosarcoma cells HT-1080. Put plainly: Anti-fibrosis activity test: inhibition of proliferation of human fibrosarcoma cells HT-1080 (CCK-8). Conditions: Homo sapiens, HT-1080, 48 h, HT-1080 cells, 48 h, CCK-8. The essentials:
as §1

The test system of assay [3] is mouse macrophages (RAW264.7). Put plainly: Lipopolysaccharide-induced NO secretion in macrophages (Griess). As to conditions: Mus musculus, RAW264.7, 24 h, RAW264.7, LPS 1 μg/ml, a/b isomers given as first/second symbol, read-out: IC50 (μM), inhibition of lipopolysaccharide-induced NO secretion in macrophages. In a few lines:
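Indomethacin and resveratrol served as positive controls while compounds were tested across concentrations on LPS-stimulated (1 μg/ml, 24 h) RAW264.7 cells. NO output was quantified colorimetrically (Griess, 548 nm).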
In general terms: Griess reagent forms a coloured azo dye with nitrite.

In the next assay the test system is NF-κB. Briefly: Immunological activity test: inhibition of NF-κB activity. Conditions: initial concentration of 30 μM; a/b isomers given as first/second symbol; read-out: IC50 (μM), inhibitory activity against NF-κB. The essentials:
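Parthenolide as positive control; starting test concentration 30 μM; inhibition of NF-κB activity analysed further to yield IC50.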

For assay [4], the system named is human embryonic lung fibroblast IMR-90. Put plainly: Anti-fibrosis activity test: inhibition of proliferation of human embryonic lung fibroblast IMR-90 (CCK-8). Conditions: Homo sapiens; IMR-90 cells, 48 h, CCK-8. In a few lines: as §1
Another assay concerns BHK-21 cells. Put plainly: Anti-fibrosis activity test: inhibition of BHK-21 cell proliferation (CCK-8). As to conditions: Mesocricetus auratus, BHK-21, 48 h, 48 h, CCK-8. In a few lines:
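Proliferation of BHK-21 cells is measured by CCK-8 at 450 nm following 48 h compound exposure at several concentrations. Inhibition is expressed relative to blank control and IC50 is computed from it.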

Assay [5] deals with human dermal fibroblasts CCC-ESF-1. Briefly: Anti-fibrosis activity test: inhibition of proliferation of human dermal fibroblasts CCC-ESF-1 (CCK-8). Conditions: Homo sapiens, Fibroblast; CCC-ESF-1 cells, 48 h, CCK-8. In a few lines: as §1
The test system of assay [6] is human hepatic stellate cells LX-2. Briefly: Anti-fibrosis activity test: inhibition of proliferation of human hepatic stellate cells LX-2 (CCK-8). As to conditions: Homo sapiens, LX-2, 48 h, LX-2 cells, 48 h, CCK-8. In a few lines:
as §1

The test system of assay [7] is cardiac fibroblast RAT-iCell-C002. Briefly: Anti-fibrosis activity test: inhibition of proliferation of cardiac fibroblast RAT-iCell-C002 (CCK-8). Conditions: Cardiac fibroblast, 48 h, RAT-iCell-C002 cells, CCK-8. In a few lines:
as §1

As a reminder, the IC50 is the concentration needed to halve the response being measured. Take `O=C1c2c(n(CCCCN3CCCCC3)c3ccccc3c2=O)-c2cccn21` [Compound 667a, 4-(4-(Piperidin-1-yl)butyl)-9H-pyrrolizino[1,2-b]quinoline-9,10(4H)-dione]: the IC50 in assay [1] lay in the range of 0.05 to 5 mM; in assay [2], 0.05 to 5 mM; in [3], 1 to 10 µM; with NF-κB it was 1 to 10 µM; in assay [4], 0.05 to 5 mM; in the assay with BHK-21 cells, 0.05 to 5 mM. Moreover, the IC50 in assay [5], in assay [6] and in [7] was 0.05 to 5 mM throughout.
As for `O=C1c2c(nc3ccccc3c2OCCCCN2CCCCC2)-c2cccn21` [Compound 667b, 9-(4-(piperidin-1-yl)butoxy)-10H-pyrrolizino[1,2-b]quinolin-10-one], the IC50 was in the range of 0.05 to 5 mM in assay [1]; 0.05 to 5 mM in assay [2]; 1 to 10 µM in [3]; 1 to 10 µM in the assay on NF-κB; 0.05 to 5 mM in assay [4]; 0.05 to 5 mM in the assay with BHK-21 cells. Also, the IC50 in [5], in [6] and in assay [7] was 0.05 to 5 mM in each case.
In the case of `O=C1c2c(n(Cc3ccccc3[N+](=O)[O-])c3ccccc3c2=O)-c2cccn21` [Compound 668a, 4-(2-Nitrobenzyl)-9H-pyrrolizino[1,2-b]quinoline-9,10(4H)-dione], the IC50 was in the range of 0.05 to 5 mM in assay [1]; 0.05 to 5 mM in [2]; 1 to 10 µM in [3]; 0.1 to 1 µM in the assay on NF-κB; 0.05 to 5 mM in assay [4]; 0.05 to 5 mM in the assay on BHK-21 cells. For the same molecule, the concentration for half-maximal inhibition (IC50) in [5], in assay [6] and in [7] was 0.05 to 5 mM throughout.
Take `O=C1c2c(nc3ccccc3c2OCc2ccccc2[N+](=O)[O-])-c2cccn21` [Compound 668b, 9-((2-nitrobenzyl)oxy)-10H-pyrrolizino[1,2-b]quinolin-10-one]: the IC50 in assay [1] was 0.05 to 5 mM; in [2] it was 0.05 to 5 mM; in assay [3], 1 to 10 µM; in the assay on NF-κB, 1 to 10 µM; in assay [4] it was 0.05 to 5 mM; in the assay with BHK-21 cells, 0.05 to 5 mM. In addition, the IC50 in assay [5], in [6] and in [7] was 0.05 to 5 mM throughout.
For the molecule `O=C1c2c(n(CCCN3CCNCC3)c3ccccc3c2=O)-c2cccn21` [Compound 669a, 4-(3-(Piperazin-1-yl)propyl)-9H-pyrrolizino[1,2-b]quinoline-9,10(4H)-dione], the IC50 in [1] lay within 0.05 to 5 mM; in assay [2] it was 0.05 to 5 mM; in assay [3], 1 to 10 µM; in the assay with NF-κB, 0.1 to 1 µM; in assay [4], 0.05 to 5 mM; in the assay on BHK-21 cells, 0.05 to 5 mM. Besides, the IC50 in assay [5], in [6] and in [7] was 0.05 to 5 mM each time.
With `O=C1c2c(nc3ccccc3c2OCCCN2CCNCC2)-c2cccn21` [Compound 669b, 9-(3-(piperazin-1-yl)propoxy)-10H-pyrrolizino[1,2-b]quinolin-10-one], the IC50 in [1] lay within 0.05 to 5 mM; in assay [2] it was 0.05 to 5 mM; in assay [3], 1 to 10 µM; in the assay on NF-κB it was 1 to 10 µM; in [4] it was 0.05 to 5 mM; in the assay on BHK-21 cells, 0.05 to 5 mM. For the same molecule, the IC50 in assay [5], in assay [6] and in assay [7] was 0.05 to 5 mM each time.
Consider `O=C1c2c(n(CCCCN3CCNCC3)c3ccccc3c2=O)-c2cccn21` [Compound 670a, 4-(4-(Piperazin-1-yl)butyl)-9H-pyrrolizino[1,2-b]quinoline-9,10(4H)-dione], for which the IC50 in [1] is 0.05 to 5 mM; in assay [2] it was 0.05 to 5 mM; in [3] it was 1 to 10 µM; in the assay on NF-κB, 0.1 to 1 µM; in assay [4], under 0.05 mM; in the assay on BHK-21 cells, under 0.05 mM. The IC50 in [5], in assay [6] and in assay [7] was 0.05 to 5 mM each time.
In the case of `O=C1c2c(nc3ccccc3c2OCCCCN2CCNCC2)-c2cccn21` [Compound 670b, 9-(4-(piperazin-1-yl)butoxy)-10H-pyrrolizino[1,2-b]quinolin-10-one], the IC50 fell in the range of 0.05 to 5 mM in [1]; 0.05 to 5 mM in assay [2]; 1 to 10 µM in assay [3]; 1 to 10 µM with NF-κB; 0.05 to 5 mM in assay [4]; 0.05 to 5 mM with BHK-21 cells. The IC50 in [5], in assay [6] and in assay [7] was 0.05 to 5 mM each time.
Take `CCCOCCn1c2c(c(=O)c3ccccc31)C(=O)n1cccc1-2` [Compound 671a, 4-(2-Propoxyethyl)-9H-pyrrolizino[1,2-b]quinoline-9,10(4H)-dione]: the IC50 was 0.05 to 5 mM in [1]; 0.05 to 5 mM in [2]; 1 to 10 µM in assay [3]; 1 to 10 µM in the assay on NF-κB; 0.05 to 5 mM in [4]; 0.05 to 5 mM in the assay with BHK-21 cells. Also, the IC50 in assay [5], in assay [6] and in [7] was 0.05 to 5 mM each time.
With `CCCOCCOc1c2c(nc3ccccc13)-c1cccn1C2=O` [Compound 671b, 9-(2-propoxyethoxy)-10H-pyrrolizino[1,2-b]quinolin-10-one], the IC50 was in the range of 0.05 to 5 mM in assay [1]; 0.05 to 5 mM in assay [2]; 1 to 10 µM in assay [3]; 0.1 to 1 µM with NF-κB; 0.05 to 5 mM in assay [4]; 0.05 to 5 mM with BHK-21 cells. Moreover, the IC50 in assay [5], in assay [6] and in assay [7] was 0.05 to 5 mM in each case.
Consider `CCOCCCn1c2c(c(=O)c3ccccc31)C(=O)n1cccc1-2` [Compound 672a, 4-(3-Ethoxypropyl)-9H-pyrrolizino[1,2-b]quinoline-9,10(4H)-dione], for which the IC50 is 0.05 to 5 mM in assay [1]; 0.05 to 5 mM in [2]; 1 to 10 µM in assay [3]; 1 to 10 µM in the assay with NF-κB; 0.05 to 5 mM in assay [4]; 0.05 to 5 mM in the assay with BHK-21 cells. In addition, the IC50 in [5], in assay [6] and in [7] was 0.05 to 5 mM in each case.
Take `CCOCCCOc1c2c(nc3ccccc13)-c1cccn1C2=O` [Compound 672b, 9-(3-ethoxypropoxy)-10H-pyrrolizino[1,2-b]quinolin-10-one]: the IC50 was in the range of 0.05 to 5 mM in [1]; 0.05 to 5 mM in assay [2]; 1 to 10 µM in assay [3]; 1 to 10 µM in the assay with NF-κB; 0.05 to 5 mM in assay [4]; 0.05 to 5 mM in the assay with BHK-21 cells. Moreover, the IC50 in assay [5], in [6] and in assay [7] was 0.05 to 5 mM throughout.
For `O=C1c2c(n(C3CC3)c3ccccc3c2=O)-c2cccn21` [Compound 673a, 4-Cyclopropyl-9H-pyrrolizino[1,2-b]quinoline-9,10(4H)-dione], the IC50 in assay [1] is 0.05 to 5 mM; in assay [2], 0.05 to 5 mM; in [3] it was 1 to 10 µM; with NF-κB it was 1 to 10 µM; in assay [4], 0.05 to 5 mM; in the assay with BHK-21 cells it was under 0.05 mM. For the same molecule, the IC50 in assay [5], in [6] and in [7] was 0.05 to 5 mM throughout.
In the case of `O=C1c2c(nc3ccccc3c2OC2CC2)-c2cccn21` [Compound 673b, 9-cyclopropoxy-10H-pyrrolizino[1,2-b]quinolin-10-one], the IC50 in [1] lay in the range of 0.05 to 5 mM; in assay [2] it was 0.05 to 5 mM; in assay [3] it was 1 to 10 µM; in the assay with NF-κB, 1 to 10 µM; in assay [4] it was 0.05 to 5 mM; with BHK-21 cells, 0.05 to 5 mM. Moreover, the IC50 in assay [5], in [6] and in [7] was 0.05 to 5 mM in each case.
`Cc1cccc2[nH]c3c(c(=O)c12)C(=O)n1cccc1-3` [Compound 678a, 8-Methyl-9H-pyrrolizino[1,2-b]quinoline-9,10(4H)-dione]: the IC50 was 0.05 to 5 mM in assay [1]; 0.05 to 5 mM in [2]; 1 to 10 µM in assay [3]; 1 to 10 µM with NF-κB; 0.05 to 5 mM in assay [4]; 0.05 to 5 mM in the assay with BHK-21 cells. Further, the IC50 in assay [5], in assay [6] and in assay [7] was 0.05 to 5 mM in each case.
As to `Cc1cccc2nc3c(c(O)c12)C(=O)n1cccc1-3` [Compound 678b, 9-hydroxy-8-methyl-10H-pyrrolizino[1,2-b]quinolin-10-one], the IC50 in assay [1] was in the range of 0.05 to 5 mM; in [2] it was 0.05 to 5 mM; in assay [3], 1 to 10 µM; with NF-κB, 1 to 10 µM; in assay [4] it was 0.05 to 5 mM; in the assay with BHK-21 cells it was 0.05 to 5 mM. Moreover, the IC50 in assay [5], in [6] and in assay [7] was 0.05 to 5 mM throughout.
